Data reported in the NIST ThermoML archive (doi:10.1021/je300941v).

Tests used:
[1] = xn = mol fraction of the nth substance listed; settings: 101 kPa, Liquid, Vibrating tube method
[2] = 101.33 kPa, Liquid, Vibrating tube method

CCCC[N+]1(C)CCCC1.O=S(=O)([N-]S(=O)(=O)C(F)(F)F)C(F)(F)F + CN(C)C=O
mass density [kg/m3], [1]
Settings | x1 = 0.0912 | x1 = 0.1871 | x1 = 0.2922 | x1 = 0.3783 | x1 = 0.4845 | x1 = 0.5809 | x1 = 0.6768 | x1 = 0.7744 | x1 = 0.8686
293.15 K | 1074.98 | 1161.1 | 1224.53 | 1262.14 | 1298.31 | 1324.74 | 1346.86 | 1366.1 | 1381.39
298.15 K | 1070.09 | 1156.23 | 1219.62 | 1257.32 | 1293.53 | 1319.99 | 1342.16 | 1361.38 | 1376.73
303.15 K | 1065.22 | 1151.35 | 1214.77 | 1252.53 | 1288.82 | 1315.37 | 1337.55 | 1356.72 | 1372.14
308.15 K | 1060.4 | 1146.5 | 1210 | 1247.8 | 1284.1 | 1310.7 | 1332.9 | 1352 | 1367.6
313.15 K | 1055.43 | 1141.58 | 1205.17 | 1243.01 | 1279.29 | 1306.04 | 1328.25 | 1347.28 | 1363.02
318.15 K | 1050.48 | 1136.63 | 1200.26 | 1238.22 | 1274.53 | 1301.32 | 1323.54 | 1342.91 | 1358.3
323.15 K | 1045.36 | 1131.55 | 1195.32 | 1233.32 | 1269.65 | 1296.48 | 1318.83 | 1338.2 | 1353.61

CNC=O [N-methylformamide]
[2]
Settings | mass density [kg/m3]
293.15 K | 1003.59
298.15 K | 999.19
303.15 K | 994.75
308.15 K | 990.33
313.15 K | 985.78
318.15 K | 981.23
323.15 K | 976.57

CN(C)C=O [dimethylformamide]
[2]
Settings | mass density [kg/m3]
293.15 K | 948.79
298.15 K | 943.87
303.15 K | 938.98
308.15 K | 934.07
313.15 K | 929.11
318.15 K | 924.04
323.15 K | 918.91
